# Laboratory results reported in PubChem BioAssay AID1238 (The Scripps Research Institute Molecular Screening Center, 2008).
# Calls of active or inactive are those of the source. How the calls were made is not given here.
# Test system: beta-lactamase reporter cell line, FRET read-out, counterscreen
# Experiment: nonspecific beta-lactamase reporter inhibition – cell-based, FRET readout, counter-screen for GALR2 antagonist project, dose response (AID 1238)
row,Compound,IC50
1,CCCCOc1ncnc2c1[nH]c1ccc(F)cc12,> 42 µM (inactive)
2,Cc1cccc(C(=O)Nc2ccc(C(=O)/C=C/c3cccnc3)cc2)c1,17.9 µM (inactive)
3,CC(=O)SC(C[N+](=O)[O-])c1cn(C(C)=O)c2ccccc12 (stereo not drawn),17.1 µM (inactive)
4,O=C(Cc1cccs1)Nc1cccc(-c2nc3cc4ccccc4cc3[nH]2)c1,> 42 µM (inactive)
5,Cc1cc(C(=O)CSc2nc3ccccc3[nH]2)c(C)n1CC1CCCO1 (stereo not drawn),> 42 µM (inactive)
6,Cc1nnc(SCC(=O)Nc2cccc(S(=O)(=O)N(C)c3ccccc3)c2)s1,> 42 µM (inactive)
7,CN(C)c1ccc(NC2=C(Cl)C(=O)c3ccccc3C2=O)cc1,> 14 µM (inactive)
8,CNc1nc2cc([N+](=O)[O-])c([N+](=O)[O-])cc2nc1NC,> 42 µM (inactive)
9,O=C(/C=C/Sc1ncn[nH]1)c1ccc(Cl)cc1,17 µM (inactive)
10,Cc1sc2ncnc(NCCc3ccc(S(N)(=O)=O)cc3)c2c1C,> 42 µM (inactive)
11,CCOC(=O)COc1ccc(S(=O)(=O)NCc2ccncc2)cc1,> 42 µM (inactive)
12,CCc1ccccc1NC(=O)CN(C)C(=O)Cn1ncc(Cl)c(Cl)c1=O,17.1 µM (inactive)
13,Cc1cc(C)c(S(=O)(=O)NCc2ccncc2)c(C)c1,> 42 µM (inactive)
14,O=C(Nc1ccc2nc(-c3cccnc3)[nH]c2c1)C12CC3CC(CC(C3)C1)C2,> 42 µM (inactive)
15,CN(C(=S)NC1CCCCC1)C1(c2ccccc2Cl)CCCCC1=O (stereo not drawn),> 42 µM (inactive)
16,COc1ccc(CCNc2c(C)c(C)nc3ncnn23)cc1,> 42 µM (inactive)
17,c1ccc2c(c1)[nH]c1c(NCC3CCCO3)ncnc12 (stereo not drawn),> 42 µM (inactive)
18,C1=C(CCNc2ncnc3c2[nH]c2ccccc23)CCCC1,> 42 µM (inactive)
19,Cc1cc(Nc2cccc(Cl)c2)nc(NCc2ccccc2)n1,> 14 µM (inactive)
20,COc1cc(/C=C/[N+](=O)[O-])ccc1O,11.1 µM (inactive)
21,CCOC(=O)c1cc([N+](=O)[O-])c([N+](=O)[O-])cc1NC(C)=O,7.53 µM
22,c1cnc2c(c1)ccc1cccnc12,> 42 µM (inactive)

row,Compound,IC50
1,COC(=O)c1ccc(COC(=O)c2[nH]c(C)c(C(C)=O)c2C)o1,> 42 µM (inactive)
2,c1ccc2c(c1)OCC(CNc1ncnc3sccc13)O2 (stereo not drawn),> 42 µM (inactive)
3,Cc1nc2ccc(NC(=O)c3cc(S(=O)(=O)N(C)c4ccccc4)ccc3Cl)cc2s1,> 42 µM (inactive)
4,O=C(Cn1ncc(Cl)c(Cl)c1=O)N1CCN(S(=O)(=O)c2ccc3ccccc3c2)CC1,> 14 µM (inactive)
5,O=C(/C=C/c1ccc(Cl)cc1)NC(=S)Nc1ccc(NC(=O)c2ccco2)cc1,> 14 µM (inactive)
6,Cc1ccc2[nH]c3c(N4CCc5ccccc5C4)ncnc3c2c1,> 42 µM (inactive)
7,CCCOc1ncnc2c1[nH]c1ccccc12,> 42 µM (inactive)
8,CCOC(=O)N1CCN(c2ncnc3c2[nH]c2ccc(F)cc23)CC1,> 42 µM (inactive)
9,CC(=O)Nc1ccccc1OCC(=O)c1cc(C)n(Cc2cccs2)c1C,> 42 µM (inactive)
10,CC(=O)c1c(C)[nH]c(C(=O)OCC(=O)Nc2ccc(Cl)cc2[N+](=O)[O-])c1C,> 42 µM (inactive)
11,Cn1nc(C(C)(C)C)cc1C(=O)NCc1ccc(N2CCCC2=O)cc1,> 42 µM (inactive)
12,CCn1c2ccc(C)cc2c2nc3cc(C(=O)O)ccc3nc21,> 42 µM (inactive)
13,Cc1ccc(S(=O)(=O)CC2CSc3nc4ccccc4n32)cc1 (stereo not drawn),> 42 µM (inactive)
14,CC1CCC/C=C/C2CC(O)CC2C(O)/C=C/C(=O)O1 (stereo not drawn),> 42 µM (inactive)
15,CCOC(=O)c1ccc(N2C(=O)CC(N3CCC(O)(c4ccc(Br)cc4)CC3)C2=O)cc1 (stereo not drawn),> 42 µM (inactive)
16,CC(=O)c1c(C)[nH]c(C(=O)OCCCCN2C(=O)c3ccccc3C2=O)c1C,> 42 µM (inactive)
17,Cc1ccc(S(=O)(=O)NCc2ccncc2)cc1,> 42 µM (inactive)
18,O=[N+]([O-])c1cc(-c2ncccn2)c([N+](=O)[O-])s1,9.61 µM
19,CCOc1ccc(S(=O)(=O)NCc2ccncc2)cc1,> 42 µM (inactive)
20,N#C/C(=C\c1cccs1)c1nc2ccccc2[nH]1,> 42 µM (inactive)
21,O=S(=O)(NCc1ccncc1)c1ccc(Br)s1,> 42 µM (inactive)
